Reference: US9051310B2, “Nicotinamide derivative or salt thereof” (FUJIFILM Corporation, priority 2011, dated 2015)

Assays:
[1] = target: T1, glutathione S-transferase (GST)-linked full-length human Syk protein (Homo sapiens, UniProt P43405); experiment: Syk enzyme assay; type: biochemical; conditions: 0.83 nM Syk, time-resolved fluorescence; read-out: IC50 of Syk-inhibitory activity
T1 construct: glutathione S-transferase (GST)-linked full-length human Syk protein; purchased Carna Biosciences; host or cells: Baculovirus expression system
Summary of the method: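 Phosphotyrosine on a biotin-peptide substrate (0.5 μM) was read by time-resolved fluorescence at 615 and 665 nm with Eu-anti-pTyr antibody and APC-streptavidin after 1 h EDTA stop.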

[2] = tested on: THP-1 cells (TNFα secretion on human IgG-coated plate); experiment: TNFα generation assay; type: cell-based; conditions: IFN-γ differentiated THP-1 cells, 7 hours, AlphaLISA, read-out: IC50 of TNFα generation inhibitory activity
Summary of the method: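 Secreted TNFα was measured by AlphaLISA after 7 h of culture on human IgG-coated wells (coating at 10 μg/ml), with 5×10^4 cells/well. Before plating, the cells had been treated with compound for 30 min at room temperature. The cells were macrophage-like THP-1, produced by a 2-day exposure to 10 ng/ml IFN-γ.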

[3] = tested on: THP-1 cells (phagocytosis of opsonized Escherichia coli); experiment: Antibody-dependent phagocytosis assay; type: cell-based; conditions: Homo sapiens; IFNγ differentiated THP-1 cells, opsonized pHrodo Escherichia coli, 3 hours; read-out: IC50 upon phagocytosis inhibition
Summary of the method: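 Read-out was imaging-based quantification of pHrodo-labeled, antibody-opsonized E. coli taken up by Calcein AM-stained viable cells after 3 h at 37° C. The cells were IFNγ-differentiated THP-1 macrophages (10 ng/ml, 2 days), preincubated with compound for 30 min at room temperature.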

Structure (SMILES) | IC50 [1] | IC50 [2] | IC50 [3]
CC[C@H](N)[C@@H](C)Nc1nc(Nc2ccc3c(c2)c(C)nn3CCOC)c(C(N)=O)cc1F [Example 2-136, 6-(((2R,3S)-3-aminopentan-2-yl)amino)-5-fluoro-2-((1-(2-methoxyethyl)-3-methyl-1H-indazol-5-yl)amino)nicotinamide] | 10 to 50 nM | 130 to 200 nM | 1000 to 3000 nM
COc1ncc(Nc2nc(N[C@H](C3CC3)[C@H](C)N)c(F)cc2C(N)=O)cc1-n1ccnn1 [Example 2-162, 6-(((1R,2S)-2-amino-1-cyclopropylpropyl)amino)-5-fluoro-2-((6-methoxy-5-(1H-1,2,3-triazol-1-yl)pyridin-3-yl)amino)nicotinamide] | 10 to 50 nM | 130 to 200 nM | 1000 to 3000 nM
CC[C@@H](Nc1nc(Nc2ccc3c(c2)c(OC(F)F)nn3C)c(C(N)=O)cc1F)[C@H](C)N [Example 2-170, 6-(((2S,3R)-2-aminopentan-3-yl)amino)-2-((3-(difluoromethoxy)-1-methyl-1H-indazol-5-yl)amino)-5-fluoronicotinamide] | < 10 nM | 130 to 200 nM | 1000 to 3000 nM
Cc1ncc(Nc2nc(N[C@@H]3CCOC[C@@H]3N)c(F)cc2C(N)=O)cc1-n1nccn1 [Example 2-214, 6-(((3R,4R)-3-aminotetrahydro-2H-pyran-4-yl)amino)-5-fluoro-2-((6-methyl-5-(2H-1,2,3-triazol-2-yl)pyridin-3-yl)amino)nicotinamide] | < 10 nM | 65 to 130 nM | 1000 to 3000 nM
COc1ncc(Nc2nc(N[C@@H]3CCOC[C@@H]3N)c(F)cc2C(N)=O)cc1-n1nccn1 [Example 2-216, 6-(((3R,4R)-3-aminotetrahydro-2H-pyran-4-yl)amino)-5-fluoro-2-((6-methoxy-5-(2H-1,2,3-triazol-2-yl)pyridin-3-yl)amino)nicotinamide] | 10 to 50 nM | 130 to 200 nM | 1000 to 3000 nM
Cc1cncc(Nc2nc(N[C@@H]3CCOC[C@@H]3N)c(F)cc2C(N)=O)c1 [Example 2-218, 6-(((3R,4R)-3-aminotetrahydro-2H-pyran-4-yl)amino)-5-fluoro-2-((5-methylpyridin-3-yl)amino)nicotinamide] | 10 to 50 nM | 65 to 130 nM | 1000 to 3000 nM
Cc1ncc(Nc2nc(N[C@H](C3CCC3)[C@H](C)N)c(F)cc2C(N)=O)cc1F [Example 2-221, 6-(((1R,2S)-2-amino-1-cyclobutylpropyl)amino)-5-fluoro-2-((5-fluoro-6-methylpyridin-3-yl)amino)nicotinamide] | < 10 nM | 130 to 200 nM | < 1000 nM
Cc1ncc(Nc2nc(N[C@H](CC(C)C)[C@H](C)N)c(F)cc2C(N)=O)cc1F [Example 2-224, 6-(((2S,3R)-2-amino-5-methylhexan-3-yl)amino)-5-fluoro-2-((5-fluoro-6-methylpyridin-3-yl)amino)nicotinamide] | < 10 nM | 130 to 200 nM | 1000 to 3000 nM
CC(C)C[C@@H](Nc1nc(Nc2ccnc(N3CCOCC3)c2F)c(C(N)=O)cc1F)[C@H](C)N [Example 2-235, 6-(((2S,3R)-2-amino-5-methylhexan-3-yl)amino)-5-fluoro-2-((3-fluoro-2-morpholinopyridin-4-yl)amino)nicotinamide] | < 10 nM | 65 to 130 nM | < 1000 nM
CC[C@H](N)[C@@H](C)Nc1nc(Nc2cnc(C)c(F)c2)c(C(N)=O)cc1F [Example 2-270, 6-(((2R,3S)-3-aminopentan-2-yl)amino)-5-fluoro-2-((5-fluoro-6-methylpyridin-3-yl)amino)nicotinamide] | 10 to 50 nM | 65 to 130 nM | 1000 to 3000 nM
Cc1ncc(Nc2nc(N[C@H](c3ccc(F)cc3)[C@H](C)N)c(F)cc2C(N)=O)cc1F [Example 2-272, 6-(((1R,2S)-2-amino-1-(4-fluorophenyl)propyl)amino)-5-fluoro-2-((5-fluoro-6-methylpyridin-3-yl)amino)nicotinamide] | 10 to 50 nM | 130 to 200 nM | < 1000 nM
CNc1ncc(Nc2nc(N[C@H](C3CCC3)[C@H](C)N)c(F)cc2C(N)=O)cc1F [Example 2-275, 6-(((1R,2S)-2-amino-1-cyclobutylpropyl)amino)-5-fluoro-2-((5-fluoro-6-(methylamino)pyridin-3-yl)amino)nicotinamide] | 10 to 50 nM | 130 to 200 nM | 1000 to 3000 nM
COCCn1ncc2c(Nc3nc(N[C@H](C4CC4)[C@H](C)N)c(F)cc3C(N)=O)cccc21 [Example 2-306, 6-(((1R,2S)-2-amino-1-cyclopropylpropyl)amino)-5-fluoro-2-((1-(2-methoxyethyl)-1H-indazol-4-yl)amino)nicotinamide] | < 10 nM | 130 to 200 nM | 1000 to 3000 nM
CCn1ncc2c(Nc3nc(N[C@@H]4CCCC[C@@H]4N)c(F)cc3C(N)=O)cncc21 [Example 2-316] | < 10 nM | 65 to 130 nM | < 1000 nM
CCn1ncc2c(Nc3nc(N[C@@H]4CCOC[C@@H]4N)c(F)cc3C(N)=O)cncc21 [Example 2-317, 6-(((3R,4R)-3-aminotetrahydro-2H-pyran-4-yl)amino)-2-((1-ethyl-1H-pyrazolo[3,4-c]pyridin-4-yl)amino)-5-fluoronicotinamide] | < 10 nM | 65 to 130 nM | 1000 to 3000 nM
CCC[C@@H](Nc1nc(Nc2cncc3c2cnn3CC)c(C(N)=O)cc1F)[C@H](C)N [Example 2-319, 6-(((2S,3R)-2-aminohexan-3-yl)amino)-2-((1-ethyl-1H-pyrazolo[3,4-c]pyridin-4-yl)amino)-5-fluoronicotinamide] | < 10 nM | 65 to 130 nM | < 1000 nM
CCn1ncc2c(Nc3nc(N[C@H](C4CC4)[C@H](C)N)c(F)cc3C(N)=O)cncc21 [Example 2-320, 6-(((1R,2S)-2-amino-1-cyclopropylpropyl)amino)-2-((1-ethyl-1H-pyrazolo[3,4-c]pyridin-4-yl)amino)-5-fluoronicotinamide] | < 10 nM | 65 to 130 nM | < 1000 nM
CCCC[C@@H](Nc1nc(Nc2cncc3c2cnn3CC)c(C(N)=O)cc1F)[C@H](C)N [Example 2-321, 6-(((2S,3R)-2-aminoheptan-3-yl)amino)-2-((1-ethyl-1H-pyrazolo[3,4-c]pyridin-4-yl)amino)-5-fluoronicotinamide] | < 10 nM | 130 to 200 nM | 1000 to 3000 nM
CCn1ncc2c(Nc3nc(N[C@H](CC(C)C)[C@H](C)N)c(F)cc3C(N)=O)cncc21 [Example 2-322, 6-(((2S,3R)-2-amino-5-methylhexan-3-yl)amino)-2-((1-ethyl-1H-pyrazolo[3,4-c]pyridin-4-yl)amino)-5-fluoronicotinamide] | < 10 nM | 65 to 130 nM | < 1000 nM
CC[C@H](N)[C@@H](C)Nc1nc(Nc2cncc3c2cnn3CC)c(C(N)=O)cc1F [Example 2-325, 6-(((2R,3S)-3-aminopentan-2-yl)amino)-2-((1-ethyl-1H-pyrazolo[3,4-c]pyridin-4-yl)amino)-5-fluoronicotinamide] | < 10 nM | 130 to 200 nM | < 1000 nM
NC(=O)c1cc(F)c(N[C@@H]2CCOC[C@@H]2N)nc1Nc1cccc2c1cnn2CC(F)F [Example 2-332, 6-(((3R,4R)-3-aminotetrahydro-2H-pyran-4-yl)amino)-2-((1-(2,2-difluoroethyl)-1H-indazol-4-yl)amino)-5-fluoronicotinamide] | < 10 nM | 65 to 130 nM | < 1000 nM
COCCn1ncc2c(Nc3nc(N[C@@H]4CCOC[C@@H]4N)c(F)cc3C(N)=O)cc(F)cc21 [Example 2-375, 6-(((3R,4R)-3-aminotetrahydro-2H-pyran-4-yl)amino)-5-fluoro-2-((6-fluoro-1-(2-methoxyethyl)-1H-indazol-4-yl)amino)nicotinamide] | < 10 nM | 65 to 130 nM | 1000 to 3000 nM
CC[C@@H](Nc1nc(Nc2cc(F)cc3c2cnn3CCOC)c(C(N)=O)cc1F)[C@H](C)N [Example 2-376, 6-(((2S,3R)-2-aminopentan-3-yl)amino)-5-fluoro-2-((6-fluoro-1-(2-methoxyethyl)-1H-indazol-4-yl)amino)nicotinamide] | < 10 nM | 65 to 130 nM | < 1000 nM
CCn1ncc2c(Nc3nc(N[C@H](C4CCC4)[C@H](C)N)c(F)cc3C(N)=O)cncc21 [Example 2-406, 6-(((1R,2S)-2-amino-1-cyclobutylpropyl)amino)-2-((1-ethyl-1H-pyrazolo[3,4-c]pyridin-4-yl)amino)-5-fluoronicotinamide] | < 10 nM | 130 to 200 nM | 1000 to 3000 nM
Cc1ncc(Nc2nc(N[C@H](c3ccccc3F)[C@H](C)N)c(F)cc2C(N)=O)cc1-n1nccn1 [Example 2-409, 6-(((1R,2S)-2-amino-1-(2-fluorophenyl)propyl)amino)-5-fluoro-2-((6-methyl-5-(2H-1,2,3-triazol-2-yl)pyridin-3-yl)amino)nicotinamide] | < 10 nM | 130 to 200 nM | 1000 to 3000 nM
